Test results as given in paper PMC11585924, “Direct measurements of neurosteroid binding to specific sites on GABAA receptors” (British journal of pharmacology, 2024).
Where “and” joins values, the source holds several entries; their conditions need not be identical. Equal values may be shown once. Entries after “also recorded” stand apart in the source; their conditions may differ. Read-outs that look alike come from different tables or passages of the source.

Tests used:
α1β3 GABAA receptors = target: T1, α1β3 GABAA receptors (Homo sapiens, UniProt P14867+P28472); assay: Two-electrode voltage clamp of GABA-elicited currents in Xenopus oocytes; format: cell-based; conditions: for potentiation of GABA-elicited currents: low GABA, wild-type α1β3
T1 construct: expressed in transfected cells; host or cells: Xenopus laevis oocytes, cRNA injected 5:1 (α1:β3)
T1 sequence (P14867 28-456): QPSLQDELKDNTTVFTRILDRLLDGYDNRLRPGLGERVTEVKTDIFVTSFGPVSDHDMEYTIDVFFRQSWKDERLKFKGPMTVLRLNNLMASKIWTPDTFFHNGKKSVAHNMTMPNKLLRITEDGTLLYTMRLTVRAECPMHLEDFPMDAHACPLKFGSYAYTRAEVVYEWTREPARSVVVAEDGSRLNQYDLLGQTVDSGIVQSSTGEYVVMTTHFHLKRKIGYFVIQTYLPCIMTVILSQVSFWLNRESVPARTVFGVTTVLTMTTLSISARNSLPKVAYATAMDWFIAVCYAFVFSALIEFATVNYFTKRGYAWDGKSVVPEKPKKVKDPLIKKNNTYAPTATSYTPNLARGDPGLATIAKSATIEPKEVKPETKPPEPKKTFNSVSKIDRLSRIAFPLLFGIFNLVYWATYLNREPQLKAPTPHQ
T1 sequence (P28472 26-473): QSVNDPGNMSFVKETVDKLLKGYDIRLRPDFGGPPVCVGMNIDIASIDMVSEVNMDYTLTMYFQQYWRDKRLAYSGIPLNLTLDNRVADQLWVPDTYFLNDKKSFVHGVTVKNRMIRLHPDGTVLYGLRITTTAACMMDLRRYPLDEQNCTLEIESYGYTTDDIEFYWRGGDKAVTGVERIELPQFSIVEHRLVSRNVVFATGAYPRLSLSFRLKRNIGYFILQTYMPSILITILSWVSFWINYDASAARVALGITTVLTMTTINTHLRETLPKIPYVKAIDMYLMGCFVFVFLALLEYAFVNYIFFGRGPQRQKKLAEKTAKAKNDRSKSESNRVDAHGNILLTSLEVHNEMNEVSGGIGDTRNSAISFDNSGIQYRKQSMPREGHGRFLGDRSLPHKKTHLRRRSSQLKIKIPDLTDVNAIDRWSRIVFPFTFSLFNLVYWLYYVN
Experimental: (§1) Receptor expression and electrophysiological recordings were conducted as described in detail previously ([Sugasawa et al., 2020]). In brief, α1β3 GABAA receptors were expressed in oocytes from the African clawed frog (X. laevis). The wild-type α1 and β3 subunits were of human origin (Genbank accession numbers NM_000806.5 and NM_000814.5, respectively). The α1 clone containing the Q-to-L mutation to the classic neurosteroid binding site ([Hosie et al., 2006]) was of rat origin. (The glutamine residue in ELIC-α1GABAAR is Q242, whereas the corresponding residue in rat α1 is Q241. For simplicity, the residue is referred to as Q242 for both rat and ELIC-α1GABAAR.) The oocytes were purchased as quarter ovaries from Xenopus1 (Dexter, MI, USA). Following digestion in 2% w/v (mg·ml^−1) collagenase A, the oocytes were injected with a total of 12 ng cRNA per oocyte in a 5:1 ratio (α1:β3) and incubated at 15°C for 2–3 days prior to electrophysiological recordings in ND96 (96-mM NaCl, 2-mM KCl, 1.8-mM CaCl2, 1-mM MgCl2, 5-mM HEPES; pH 7.4) supplemented with 100 U·ml^−1 penicillin and 100 μg·ml^−1 streptomycin.
(§2) Electrophysiological recordings were conducted at ≈22°C using standard two-electrode voltage clamp. The voltage and current electrodes (G120F-4, OD = 1.20 mm, ID = 0.69 mm; Warner Instruments, Hamden, CT, USA) were filled with 3-M KCl and had resistances of 0.3–1 MΩ. The oocytes were clamped at −60 mV. The chamber (RC-1Z; Warner Instruments) was perfused with ND96 at 5–8 ml·min^−1. Solutions were gravity-applied. The current responses were amplified with an Axoclamp 900A (Molecular Devices, San Jose, CA, USA) or OC-725C amplifier (Warner Instruments), digitized with a Digidata 1200 series digitizer (Molecular Devices) and stored on PC hard drive using pClamp (Molecular Devices; RRID:SCR_011323). Current amplitudes were determined using Clampfit (Molecular Devices).
A standard experiment consisted of a several-minute long applications of GABA followed immediately by a co-application of GABA + modulator and a wash in GABA. For normalization purposes, each cell was exposed to the combination of saturating (1-mM) GABA + 50-μM propofol, assumed to fully activate all receptors in the cell ([Eaton et al., 2016]).

ELIC-α1GABAAR [1] = target: T2, ELIC-α1GABAAR (Homo sapiens, UniProt P14867); format: binding
Experimental: One hundred microlitres of ELIC-α1GABAAR (0.3 μM) was transferred into a 50-μl window quartz cuvette maintained at 4°C, and NaI was added to the protein sample to a final concentration of 100 mM and incubated for 10 min. MQ290 was then added at a concentration of 3 μM for 3α-OH NS inhibition curves or 1 μM for 3β-OH NS inhibition curves and incubated for 30 min. One-microlitre aliquots of 3α-OH and 3β-OH NS from their corresponding stock solutions (prepared in Buffer A + 0.015% DDM) were added to achieve concentrations between 0.01 and 30 μM. The background emission spectra of ligands alone were obtained for each ligand concentration in the absence of protein and were subtracted from the protein-ligand emission spectra to yield background subtracted data. The MQ290 FRET spectra for different ligand concentrations were estimated using the method described above. The 370-nm intensities of the FRET spectra were plotted against ligand concentration and fitted to a four-parameter logistic curve to obtain IC50 data (GraphPad Software version 9.4.0, San Diego, CA). Ki values were calculated using the relationship: Ki=IC50/1+LT/Kd
where LT is the concentration of MQ290 and Kd was determined from the MQ290 binding curve.

[2] = system: T3, α1^Q242Lβ3 GABAA receptors; assay: Two-electrode voltage clamp, α1(Q242L) mutant receptors in Xenopus oocytes; format: cell-based, rat α1, human β3; conditions: low GABA; α1(Q242L)β3
T3 construct: expressed in transfected cells; host or cells: Xenopus laevis oocytes, cRNA injected 5:1 (α1:β3)
Experimental: as §1, §2
A standard experiment consisted of a several-minute long applications of GABA followed immediately by a co-application of GABA + modulator and a wash in GABA. […]

ELIC-α1GABAAR [3] = target: T2, ELIC-α1GABAAR; format: binding; remark: listed apart in the source
Experimental: Excitation and emission spectra were obtained using a FluoroMax Plus-C fluorometer (Horiba Instruments, Tokyo, Japan). For obtaining emission spectra, 280 nm was used as the excitation wavelength and emission was recorded from 300 to 450 nm. The excitation and emission slit widths used for obtaining emission spectra were 1 and 5 nm. For protein-ligand binding experiments, three emission spectra were obtained and averaged after each addition of a ligand or sodium iodide (NaI). The averaged spectra were smoothed using the Savitzky–Golay method before analysis.
One hundred microlitres of purified ELIC-α1GABAAR (0.3 μM in Buffer A + 0.015% DDM) was transferred into a 50-μl window quartz cuvette (Starna Cells, Atascadero, CA, USA), which was placed in a cuvette holder maintained at 4°C. […] Two microlitres of NaI (AK Scientific, Union City, CA, USA; 5-M stock prepared in 0.1-Mm sodium hydrosulfite [Sigma-Aldrich, St. Louis, MO, USA]) was added to the protein (final concentration = 100 mM) and incubated for 10 min to reduce the fluorescence emission from hydrophilic tryptophans. To measure the concentration–dependent effects of NS on tryptophan fluorescence, 1 μl of NS from each 100× stock solution was sequentially added to the NaI-equilibrated protein and thoroughly mixed to achieve concentrations from 0.01 to 50 μM. […]

ELIC-α1^Q242LGABAAR = assay: MQ290 FRET in Q242L receptors; format: binding, human; conditions: Q242L vs WT
Experimental: (§3) To monitor binding of MQ290 to ELIC-α1GABAAR, 100 μl of ELIC-α1GABAAR (0.3 μM) was transferred into a 50-μl window quartz cuvette that was placed in a cuvette holder. The temperature of the cuvette was maintained at 4°C. NaI (final concentration = 100 mM) was added to the protein sample and incubated for 10 min to reduce the emission of hydrophilic tryptophan residues. One-microlitre aliquots of 100× stock solutions of MQ290 (prepared in Buffer A + 0.015% DDM) were sequentially added to the protein sample and incubated for 30 min after each addition. Because MQ290 alone absorbs at 280 nm, emission spectrum (background spectrum) of MQ290 in the absence of protein was also obtained. The MQ290 background spectra were subtracted from the protein-MQ290 emission spectra to obtain the background-corrected spectra and were smoothened using the Savitzky–Golay method before analysis.
(§4) The ELIC-α1GABAAR emission spectrum obtained before the addition of MQ290 was used as the reference to estimate the contribution of ELIC-α1GABAAR tryptophan emission in the presence of MQ290. […] The calculated ELIC-α1GABAAR tryptophan emission spectrum was then subtracted from the background-corrected spectrum to obtain the emission spectrum of the signal resulting from energy transfer (FRET spectrum) from tryptophan to MQ290 (Figure S6). […]

ELIC-α1GABAAR [4] = target: T2, ELIC-α1GABAAR; assay: KK200 photolabelling competition, middle-down MS; format: binding; conditions: 3 μM KK200, 30 μM competitor
Experimental: The synthesis of the NS photolabelling reagent KK200 is detailed in previous reports ([W. W. L. Cheng et al., 2018]; [Jiang et al., 2016]). […] The samples were then irradiated in a quartz cuvette for 5 min, using a photoreactor emitting light at >320 nm ([Germann et al., 2021]). Sample preparation for tryptic digestion and analysis by LC–MS was performed as previously described ([Sugasawa et al., 2019]). Peptides were separated on a home-packed PLRP-S (Agilent, Santa Clara, CA, USA) column (10 cm × 75 μm, 300 Å) using a 135-min gradient from 10% to 90% acetonitrile and introduced to an Orbitrap-Elite mass spectrometer (Thermo Fisher Scientific, Waltham, MA, USA; RRID:SCR_020548) at 800 nl·min^−1 with a nanospray source. MS acquisition was set as an MS1 Orbitrap scan (resolution of 60,000) followed by top 20 MS2 Orbitrap scans (resolution of 15,000) using data-dependent acquisition and exclusion of singly charged precursors. Fragmentation was performed using high-energy dissociation with normalized energy of 35%. Analysis of data sets was performed using Xcalibur (Thermo Fisher Scientific, Waltham, MA, USA; RRID: SCR_014593) to manually search for TM1, TM2, TM3 or TM4 tryptic peptides with or without NS photolabelling modifications. Photolabelling efficiency was estimated by generating extracted chromatograms of unlabelled and labelled peptides, determining the area under the curve, and calculating the (area of labelled peptide/(area of unlabelled + area of labelled peptide). MS2 spectra of photolabelled TMD peptides were analysed by manual assignment of fragment ions with and without photolabelling modification.

ELIC-α1^W246LGABAAR = ELIC-α1^W246LGABAAR (Homo sapiens, UniProt P14867, W273L); assay: MQ290 FRET in W246L receptors; format: binding; conditions: W246L vs WT
Experimental: as §3, §4

T2 sequence (P14867 other isoform, or with tags, fused parts or gaps): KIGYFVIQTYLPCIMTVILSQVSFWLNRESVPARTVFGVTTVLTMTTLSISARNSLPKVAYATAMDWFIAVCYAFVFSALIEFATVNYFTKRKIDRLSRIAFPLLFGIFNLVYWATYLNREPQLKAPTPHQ
T2 sequence (P0C7B7 1-198, further chain): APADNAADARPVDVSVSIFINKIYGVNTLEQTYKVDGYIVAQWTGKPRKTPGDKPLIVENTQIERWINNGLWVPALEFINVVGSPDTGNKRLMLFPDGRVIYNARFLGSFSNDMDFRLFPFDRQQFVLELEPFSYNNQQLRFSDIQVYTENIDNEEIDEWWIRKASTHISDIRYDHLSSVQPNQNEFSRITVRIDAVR
ELIC-α1^W246LGABAAR, sequence (P14867 other isoform, or with tags, fused parts or gaps W273L): as the sequence (P14867 other isoform, or with tags, fused parts or gaps) above, with W25L counted along it
ELIC-α1^W246LGABAAR, sequence (P0C7B7 1-198, further chain): as the sequence (P0C7B7 1-198, further chain) above

SMILES: CC(=O)[C@H]1CCC2C3CC[C@H]4C[C@@](C)(O)CC[C@]4(C)C3CC[C@@]21C (stereo partly drawn) [Epi-GX, epi-ganaxolone]
- potentiation of GABA-elicited currents (α1β3 GABAA receptors): do not
- Hill slope (ELIC-α1GABAAR [1]; 3β-OH NS, MQ290 1 μM): −0.67 ± 0.30

SMILES: CC(=O)[C@H]1CCC2C3CC[C@@H]4C[C@@H](O)CC[C@]4(C)C3CC[C@@]21C (stereo partly drawn) [Epi-PREG, Epi-pregnanolone]
- potentiation of GABA-elicited currents (α1β3 GABAA receptors): potentiates
- Hill slope (ELIC-α1GABAAR [1]; 3β-OH NS, MQ290 1 μM): −0.77 ± 0.42
- potentiating effect with α1(Q242L) mutation [2]: prevented

SMILES: CO[C@H]1CCC2C3CC[C@H]4C[C@H](O)CC[C@]4(C)C3CC[C@@]21C (stereo partly drawn) [YX03]
- potentiation of GABA-elicited currents (α1β3 GABAA receptors): enhances; also recorded: potentiates
- prevention of AlloP induced quenching (ELIC-α1GABAAR [3]): partially prevents
- quenching of ELIC-α1GABAAR tryptophan fluorescence (ELIC-α1GABAAR [3]; YX03 10 and 30 µM): absent; also recorded: does not quench
- Hill slope (ELIC-α1GABAAR [1]; 3α-OH NS, MQ290 3 μM): −0.98 ± 0.37
- potentiating effect with α1(Q242L) mutation [2]: blocked

SMILES: CO[C@H]1CCC2C3=CC=C4C[C@H](O)CC[C@]4(C)C3=CC[C@@]21C (stereo partly drawn) [MQ290]
- EC50 (α1β3 GABAA receptors): 1 to 10 µM
- potentiation of GABA-elicited currents (α1β3 GABAA receptors): potentiates
- MQ290 FRET signal in Q242L mutants (ELIC-α1^Q242LGABAAR): significantly reduced
- potentiating effect with α1(Q242L) mutation [2]: eliminated
- prevention of KK200 photolabelling of TM3 (Y309) (ELIC-α1GABAAR [4]): significantly different than control; also recorded: prevented
- reduction of maximal MQ290 FRET signal in W246L receptors (ELIC-α1^W246LGABAAR): ~ 90% and 90%

SMILES: CC(=O)[C@H]1CC[C@H]2[C@@H]3CC[C@H]4C[C@](C)(O)CC[C@]4(C)[C@H]3CC[C@]12C [GX, ganaxolone]
- Hill slope (ELIC-α1GABAAR [1]; 3α-OH NS, MQ290 3 μM): −1.57 ± 0.26

SMILES: CC(=O)[C@H]1CC[C@H]2[C@@H]3CC[C@@H]4C[C@H](O)CC[C@]4(C)[C@H]3CC[C@]12C [PREG, pregnanolone]
- Hill slope (ELIC-α1GABAAR [1]; 3α-OH NS, MQ290 3 μM): −1.02 ± 0.35
